Experimental data taken from the supplement of paper PMC7840683.
Counter-ions that a name gives are not always drawn. ± gives the standard deviation of the averaged measurements.

System: HepaRG
Assay: LDH release cytotoxicity, % of total lysis control; higher = more cytotoxic
Details: 48 h
Summary of the method: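 On collagen I-coated 96-well plates, single-lot HepaRG cells were exposed for 48 h, in duplicate, to eight-point half-log series of test chemicals beginning at 100 µM. The exposure medium was serum-free induction medium with 0.5% DMSO, and total lysis wells got 0.1% Triton X. Resorufin fluorescence from the CytoTox-ONE reaction, read on a Tecan Safire, reported LDH in 50 µL of spent medium. Percent cytotoxicity came from normalization to on-plate vehicle and total lysis controls, averaged over the duplicates.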

Row | Structure (SMILES) | LDH release cytotoxicity (0.03162 µM) [%] | LDH release cytotoxicity (0.1 µM) [%] | LDH release cytotoxicity (0.3162278 µM) [%] | LDH release cytotoxicity (1 µM) [%] | LDH release cytotoxicity (3.16228 µM) [%] | LDH release cytotoxicity (10 µM) [%] | LDH release cytotoxicity (31.6228 µM) [%] | LDH release cytotoxicity (100 µM) [%] | also measured
1 | CC=Cc1ccc(O)c(OC)c1 [Isoeugenol] | -2.86 ± 1.2 | -2.42 ± 0.51 | -2.55 ± 0.96 | -3.05 ± 1.7 | -2.354 ± 0.0053 | -2.16 ± 0.6 | -2.4 ± 0.96 | -1.84 ± 1.7 | –
2 | NNC(=O)c1ccncc1 [Isoniazid] | – | – | – | – | – | – | – | – | LDH release cytotoxicity (0.013914 µM): -1.4 ± 0.98%; LDH release cytotoxicity (0.044 µM): -0.0891 ± 1.3%; LDH release cytotoxicity (0.13914 µM): -1.34 ± 0.49%; LDH release cytotoxicity (0.44 µM): -1.05 ± 1.1%; LDH release cytotoxicity (1.3914 µM): -1.62 ± 0.34%; LDH release cytotoxicity (4.4 µM): -0.682 ± 2%; LDH release cytotoxicity (13.914 µM): -0.843 ± 0.11%; LDH release cytotoxicity (44 µM): -0.0914 ± 0.33%
3 | C=CC(=O)OCCCCCC(C)C [Isooctyl acrylate] | -1 ± 0.16 | -1.54 ± 0.15 | -2.08 ± 0.28 | -1.07 ± 0.63 | -1.61 ± 0.64 | -1.55 ± 0.55 | -0.382 ± 0.33 | 0.567 ± 1.4 | –
4 | CC(C)CCO [Isopentyl alcohol] | – | – | – | – | – | – | – | – | LDH release cytotoxicity (0.0317809 µM): -1.55 ± 0.48%; LDH release cytotoxicity (0.1005 µM): -1.43 ± 0.1%; LDH release cytotoxicity (0.317809 µM): -2.18 ± 0.83%; LDH release cytotoxicity (1.005 µM): -2.36 ± 0.33%; LDH release cytotoxicity (3.17809 µM): -1.495 ± 0.0016%; LDH release cytotoxicity (10.05 µM): -1.51 ± 0.068%; LDH release cytotoxicity (31.7809 µM): -1.18 ± 0.042%; LDH release cytotoxicity (100.5 µM): -0.0999 ± 0.2%
5 | CCCC(=O)OCCC(C)C [Isopentyl butyrate] | 0.497 ± 0.0082 | -0.72 ± 1.4 | -0.446 ± 0.5 | -0.671 ± 1.2 | 0.184 ± 1.4 | 0.168 ± 0.62 | 0.438 ± 0.51 | 1.65 ± 0.66 | –
6 | CC1(C)CC(N=C=O)CC(C)(CN=C=O)C1 (configuration not stated) [Isophorone diisocyanate] | -2.14 ± 0.59 | -2.6 ± 0.31 | -2.25 ± 1.1 | -2.1 ± 0.37 | -1.35 ± 0.43 | -1.724 ± 0.015 | -2.21 ± 0.73 | 0.405 ± 0.69 | –
7 | CC1=CC(=O)CC(C)(C)C1 [Isophorone] | -0.205 ± 0.22 | 0.529 ± 2.1 | -0.132 ± 0.62 | -0.235 ± 0.13 | 0.145 ± 0.46 | 1.04 ± 0.22 | 0.514 ± 0.36 | 1.74 | –
8 | CCCN(CCC)c1c([N+](=O)[O-])cc(C(C)C)cc1[N+](=O)[O-] [Isopropalin] | -0.731 ± 0.3 | -1.48 ± 0.89 | -2.92 ± 0.17 | -1.36 ± 0.06 | -1.98 ± 0.26 | -1.28 ± 0.079 | -1.55 ± 0.27 | -0.986 ± 0.92 | –
9 | CC(C)[O-].CC(C)[O-].[O-]CCN(CCO)CCO.[O-]CCN(CCO)CCO.[Ti+4] [Isopropyl triethanolamine titanate] | -5.22 ± 4.5 | -1.09 ± 0.96 | -0.881 ± 0.2 | -0.333 ± 0.037 | 0.622 ± 0.39 | 0.156 ± 1.4 | 0.0089 ± 0.55 | 0.6851 ± 0.0067 | –
10 | CC(C)NCC(O)c1ccc(O)c(O)c1 (configuration not stated) [Isoproterenol hydrochloride] | -1.33 ± 0.21 | -0.922 ± 5.4 | 0.959 ± 0.54 | 2.34 ± 1.1 | 2.16 ± 0.62 | -0.0702 ± 0.068 | -1.75 ± 0.25 | -1.61 ± 0.35 | –
11 | CCC(C)(CC)c1cc(NC(=O)c2c(OC)cccc2OC)on1 [Isoxaben] | -2.09 ± 1.5 | -2.04 ± 0.44 | -2.03 ± 0.16 | -2.59 ± 0.72 | -2.88 ± 0.57 | -1.64 ± 0.83 | -1.59 ± 0.14 | 11.4 ± 1.3 | –
12 | CS(=O)(=O)c1cc(C(F)(F)F)ccc1C(=O)c1cnoc1C1CC1 [Isoxaflutole] | -0.368 ± 0.91 | -1.2 ± 0.74 | -2.1 ± 0.12 | -1.58 ± 1.2 | -0.928 ± 1.1 | -0.455 ± 0.32 | -0.687 ± 0.2 | 0.934 ± 0.86 | –
13 | O=C1C2(Cl)C3(Cl)C4(Cl)C(Cl)(Cl)C5(Cl)C3(Cl)C1(Cl)C5(Cl)C24Cl (configuration not stated) [Kepone] | -0.309 ± 0.28 | 0.458 ± 0.64 | -0.526 ± 0.16 | -0.604 ± 0.8 | -0.552 ± 0.22 | -0.815 ± 0.31 | 8.06 ± 1.2 | 90.1 ± 3.4 | –
14 | CC(=O)N1CCN(c2ccc(OCC3COC(Cn4ccnc4)(c4ccc(Cl)cc4Cl)O3)cc2)CC1 (configuration not stated) [Ketoconazole] | -3.06 ± 0.81 | -3.11 ± 0.33 | -2.22 ± 0.27 | -2.59 ± 0.32 | -2.26 ± 0.88 | 2.6 ± 2.2 | 1.63 ± 0.66 | 80.8 ± 7.1 | –
15 | O=C(O)[C@H](O)[C@@H](O)C(=O)O [L-Tartaric acid] | -3.55 ± 0.17 | -2.52 ± 1.6 | -2.17 ± 1.1 | -2.97 ± 1.1 | -2.2 ± 0.7 | -0.465 ± 0.18 | 1.18 ± 0.94 | 6.93 ± 0.79 | –
16 | N[C@@H](Cc1c[nH]c2ccccc12)C(=O)O [L-Tryptophan] | -1.94 ± 0.23 | -2.65 ± 0.14 | -1.1 ± 0.19 | -1.86 ± 0.22 | -2.03 ± 0.27 | -1.29 ± 0.26 | -1.37 ± 0.3 | -1.29 ± 0.24 | –
17 | CCOC(=O)C(C)OC(=O)c1cc(Oc2ccc(C(F)(F)F)cc2Cl)ccc1[N+](=O)[O-] (configuration not stated) [Lactofen] | -1.17 ± 0.45 | -0.64 ± 0.62 | -0.974 ± 0.24 | -1.12 ± 0.48 | -0.601 ± 0.34 | -0.515 ± 0.76 | -0.447 ± 0.37 | 0.298 ± 0.45 | –
18 | C#CC1(O)CCC2C3CCC4=CC(=O)CCC4C3CCC21CC (configuration not stated) [Levonorgestrel] | -1.38 ± 1.4 | -1.25 ± 1.1 | -1.67 ± 1.2 | -1.92 ± 0.3 | -1.95 ± 0.12 | -1.02 ± 0.035 | -0.294 ± 1.1 | 0.81 ± 0.17 | –
19 | ClC1C(Cl)C(Cl)C(Cl)C(Cl)C1Cl (configuration not stated) [Lindane] | -0.796 ± 0.18 | -0.605 ± 0.45 | -0.762 ± 1 | -0.901 ± 0.75 | -0.128 ± 0.47 | -0.657 ± 0.1 | 0.201 ± 0.43 | 5.07 ± 0.72 | –
